Reference: US20050267169A1, “Watersoluble prodrugs of propofol” (priority 2002, published 2005)
Values after ≈ are worked out from the molar mass of the structure shown. Where a name gives a salt, the structure may show the parent alone. Marks after values point to notes of the source that are not given here.

Columns and labels:
[1] = Solubility in deionized water at 25° C.; type: physicochemical; conditions: 72 h equilibration; for solubility at 72 h: thermodynamic from solid, read-out: Solubility (mg/mL) in deionized water
Experimental: The resulting mixture was vortexed for 10 min and then mechanically shaken in a thermostatic bath shaker (100 rpm) for 72 h to attain equilibrium. Next, the mixture was filtered through a 0.45 μm membrane filter (Millipore®, cellulose acetate) and an aliquot was diluted with an appropriate amount of water and analyzed for the aminoacid ester prodrug content spectrophotometrically at 210 nm. All of the manipulations were made without removal of the test tubes from the water bath, using thermostated pipettes, syringes, and buffer solutions. In Table II, as shown below, solubility data is compared with the data previously determined for propofol derivatives 2a-c (Trapani G. Latrofa A, Franco M, Lopedota A, Maciocco E, Liso G. 1998. Water-soluble salts of amino acid esters of the anesthetic agent propofol. Int. J. Pharm. 175: 195-204.).

porcine liver esterase = assay: Hydrolysis in the presence of porcine liver esterase; type: in vitro ADME; conditions: for Cleaved quantitatively to the parent drug in porcine liver esterase solution / half-life: 37° C.; for half-life: pig, porcine liver esterase, read-out: Half-lives at 37° C., Porcine liver esterase (13 U/mL) (converted)
From the text: Hydrolysis of compounds 6a-d in the presence of porcine liver esterase was followed using a reported procedure (Bonina F P, Arenare L, Palagiano F, Saija A, Nava F, Trombetta D, De Caprariis P. 1998. Synthesis, stability, and pharmacological evaluation of nipecotic acid prodrugs. J. Pharm. Sci. 8: 561-567.).

GABAA receptor = assay: In vitro [35S]TBPS binding assay, unwashed rat cortical membranes; conditions: for IC50: unwashed rat brain (cortical) membranes
Experimental: The data is expressed as a percentage of binding measured in the presence of solvent and are means of two experiments.
Rats were killed by decapitation and their brains rapidly removed on ice. The cerebral cortex was dissected out and homogenized in 50 volumes of ice-cold 50 mM Tris-citrate buffer (pH 7.4 at 25° C.) containing 100 mM CaCl2 using a Polytron PT 10 (setting 5, for 20 sec) and centrifuged at 20.000×g for 20 min. The resulting pellet was resuspended in 50 volumes of 50 mM Tris-citrate buffer (pH 7.4 at 25° C.) and used for the assay. [^35S]TBPS binding was determined in a final volume of 500 μL consisting of. 200 μL of tissue homogenate (0.20-0.25 mg protein), 50 μL of [^35S]TBPS (final assay concentration of 1 nM), 50 μl 2 M NaCl, 50 μL of drugs or solvent and buffer to volume. Incubations (25° C.) were initiated by addition of tissue and terminated 90 min later by a rapid filtration through glass-fiber filter strips (Whatman GF/B, Clifton, N.J.), which were rinsed twice with a 4 mL portion of ice-cold Tris-citrate buffer using a Cell Harvester filtration manifold (model M-24m Brandel, Gaithersburg, Md.). Filter bound radioactivity was quantitated by liquid scintillation spectrometry. […] Protein content was determined by the method of Lowry^20 using bovine serum albumin as a standard.

[2] = target: T1, human α1β2γ2 GABAA receptors (Homo sapiens, UniProt P14867+P18507+P47870); assay: Voltage-clamp electrophysiology in Xenopus laevis oocytes; type: cell-based; conditions: GABA EC20 (2-10 μM); for Effect on GABA-evoked chloride currents: concentration-dependent
T1 construct: expressed in transfected cells; host or cells: Xenopus laevis oocytes (nuclear injection of cDNAs in pCDM8)
T1 sequence (P14867 28-456): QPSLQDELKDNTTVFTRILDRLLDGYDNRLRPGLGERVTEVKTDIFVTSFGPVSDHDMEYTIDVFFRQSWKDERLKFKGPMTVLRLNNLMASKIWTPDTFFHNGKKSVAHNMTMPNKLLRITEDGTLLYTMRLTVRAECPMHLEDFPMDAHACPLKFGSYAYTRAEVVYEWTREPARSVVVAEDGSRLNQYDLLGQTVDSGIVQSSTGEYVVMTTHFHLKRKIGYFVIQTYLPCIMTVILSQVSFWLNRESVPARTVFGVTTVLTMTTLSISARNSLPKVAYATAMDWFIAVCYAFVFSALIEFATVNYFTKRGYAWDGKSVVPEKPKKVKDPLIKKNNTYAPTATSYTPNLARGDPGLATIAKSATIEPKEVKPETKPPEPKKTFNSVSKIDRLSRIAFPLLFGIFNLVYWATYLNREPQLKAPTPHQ
T1 sequence (P47870 25-512 limits assumed): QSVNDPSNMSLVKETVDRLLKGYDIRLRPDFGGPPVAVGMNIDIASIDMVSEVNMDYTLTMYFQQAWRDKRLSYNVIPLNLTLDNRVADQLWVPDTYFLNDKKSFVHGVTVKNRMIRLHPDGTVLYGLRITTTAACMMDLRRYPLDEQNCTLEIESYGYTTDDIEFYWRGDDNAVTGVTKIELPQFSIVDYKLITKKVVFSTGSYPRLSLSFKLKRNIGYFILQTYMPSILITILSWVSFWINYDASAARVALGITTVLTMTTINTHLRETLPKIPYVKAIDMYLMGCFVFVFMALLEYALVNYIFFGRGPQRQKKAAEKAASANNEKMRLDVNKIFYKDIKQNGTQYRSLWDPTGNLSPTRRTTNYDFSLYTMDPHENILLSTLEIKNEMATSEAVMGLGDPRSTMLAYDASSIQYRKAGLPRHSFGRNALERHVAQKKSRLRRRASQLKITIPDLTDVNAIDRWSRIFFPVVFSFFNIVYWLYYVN
T1 sequence (P18507 40-475): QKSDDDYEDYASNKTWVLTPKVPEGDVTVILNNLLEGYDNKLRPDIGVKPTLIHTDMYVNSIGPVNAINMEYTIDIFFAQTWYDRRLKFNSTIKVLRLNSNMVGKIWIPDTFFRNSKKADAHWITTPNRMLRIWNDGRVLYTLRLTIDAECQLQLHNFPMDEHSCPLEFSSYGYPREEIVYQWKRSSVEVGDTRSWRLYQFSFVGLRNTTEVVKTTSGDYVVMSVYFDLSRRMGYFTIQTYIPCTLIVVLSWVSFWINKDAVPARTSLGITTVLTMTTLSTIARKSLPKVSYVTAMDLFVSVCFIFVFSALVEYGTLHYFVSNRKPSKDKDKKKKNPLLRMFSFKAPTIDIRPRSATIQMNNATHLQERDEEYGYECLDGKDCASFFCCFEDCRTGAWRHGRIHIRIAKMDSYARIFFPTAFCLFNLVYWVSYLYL
Experimental: Values are expressed as mean (6-13 different oocytes)±s.e.m. percentage of the potentiation of the control response to GABA (EC20, 2-10 μM).
Complementary DNAs encoding the human α1, β2, and γ2 GABAA receptor subunits were subcloned into the pCDM8 expression vector (Invitrogen, San Diego, Calif.). The cDNAs were purified with the Promega Wizard Plus Miniprep DNA Purification System (Madison, Wis.) and then resuspended in sterile distilled water, divided into portions, and stored at −20° C. until used for injection. Stage V and VI oocytes were manually isolated from sections of Xenopus laevis ovary, placed in modified Barth's saline (MBS) containing 88 mM NaCl, 1 mM KCl, 10 mM Hepes-NaOH buffer (pH 7.5), 0.82 mM MgSO4, 2.4 mM NaHCO3, 0.91 mM CaCl2, and 0.33 mM Ca(NO3)2 and treated with 0.5 mg/mL of collagenase Type IA (Sigma) in collagenase buffer (83 mM NaCl, 2 mM KCl, 1 mM MgCl2, 5 mM Hepes-NaOH buffer, pH 7.5) for 10 min at room temperature, to remove the follicular layer. A mixture of GABAA receptor α1, β2, and γ2 subunit cDNAs (1.5 ng/30 nL) was injected into the oocyte nucleus using a 10 μL glass micropipette (10-15 μm tip diameter). The injected oocytes were cultured at 19° C. in sterile MBS supplemented with streptomycin (10 μg/mL), penicillin (10 U/mL), gentamicin (50 μg/mL), 0.5 mM theophylline, and 2 mM sodium pyruvate. Electrophysiological recordings began approximately 24 h following cDNA injection. Oocytes were placed in a 100-μL rectangular chamber and continuously perfused with MBS solution at a flow rate of 2 mL/min at room temperature. The animal pole of oocytes was impaled with two glass electrodes (0.5 to 3 MΩ) filled with filtered 3 M KCl and the voltage was clamped at −70 mV with an Axoclamp 2-B amplifier (Axon Instruments, Burlingame, Calif.). Currents were continuously recorded on a strip-chart recorder. Resting membrane potential usually ranged from −30 to −50 mV. Drugs were perfused for 20 s (7-10 s were required to reach equilibrium in the recording chamber). Intervals of 5 to 10 min were allowed between drug applications.

[3] = system: pentylenetetrazole-induced seizures; assay: Anticonvulsant activity against pentylenetetrazole-induced seizures; type: in vivo, rat; conditions: for Anticonvulsant activity, No. of rats protected/tested: pentylenetetrazole 55 mg/kg i.p.
Experimental: The anticonvulsant activity against pentylenetetrazole-induced seizures (55 mg/kg) was measured.

[4] = Chemical hydrolysis in 0.05 M phosphate buffers at 37° C.; type: physicochemical; conditions: phosphate buffer, pH 7.4, 0.05 M phosphate buffer pH 7.4, 37° C.; for half-life: read-out: Half-lives at 37° C., pH 7.4 buffer (converted)
Experimental: The hydrolysis of the propofol esters 6a-d was studied in aqueous buffer solutions (0.05 M phosphate buffers; ionic strength of 0.5 maintained by adding a calculated amount of KCl) at pH values of 4, 6, and 7.4 and temperature of 37±0.2° C. The reactions were initiated by adding 100 μl of a stock solution of the ester (13 mg/mL methanol) to 20 mL of the buffer solution preheated at 37° C., in screw-capped test tubes (final concentration about 2.0×10^−4 M). The solutions were kept in a water bath at a constant temperature, and at appropriate intervals aliquots of 20 μL were withdrawn and analyzed by HPLC. Pseudo-first-order rate constants for the hydrolysis were determined from the slopes of linear plots of the logarithm of residual propofol ester against time.
The kinetics of hydrolysis of the derivatives 6a-d were determined in 0.05 M phosphate buffers at pHs 4.0, 6.0 and 7.4 at 37° C. as well as in rat serum solution and in the presence of porcine liver esterase.

[5] = Hydrolysis in phosphate buffer containing 50% rat serum at 37° C.; type: in vitro ADME; conditions: for half-life: 50% rat serum in phosphate buffer, 50% rat serum in pH 7.4 phosphate buffer, read-out: Half-lives at 37° C., 50% rat serum (converted); for Cleaved quantitatively to the parent drug in rat serum: rat serum solution
Experimental: Each reaction were initiated by adding 100 μL of the methanolic stock solution of compound under examination to 1.6 mL of preheated serum solution (final concentration about 1×10^−3 M) and the mixture was maintained in water bath at 37° C. At appropriate times, 100 μL samples were withdrawn and added to 500 μL of cold acetonitrile in order to deproteinize the serum. After mixing and centrifugation (10 min at 4000 rpm), 20 μL of the clear supematant were filtered through 0.2 μm membrane filter (Waters, PTFE 0.2 μm) and analyzed by HPLC.

righting reflex = assay: Anesthetic activity: loss of righting reflex; type: in vivo, rat; conditions: rats, i.p.; propofol and Diprivan 60 mg/kg, 6a 105 mg/kg (equimolar); mean ± s.e.m.
Experimental: The loss and reestablishment of righting responses, time of anesthesia induction, and sleeping time were also assessed. Rats (five per group) were treated with propofol and Diprivan®, both at a dose of 60 mg/kg, and an equimolar dose of compound 6a (105 mg/kg) and were continuously monitored for the loss of righting reflex (onset and duration). Propofol and its derivative 6a were dissolved in saline with a drop of Tween 80 per 5 mL and administered intraperitoneally in a volume of 0.3 mL per 100 g of body mass. Anesthesia induction (sleep onset) was defined as the time from drug administration to loss of righting reflex, whereas the sleeping time was the time from the loss of the righting reflex until the animals were plantigrade on all four legs. The significance of differences in behavioral data were analyzed by the ANOVA test.

[6] = unwashed rat cortical membranes
[7] = propofol 40 mg/kg i.p. or equimolar dose

Compound | Solubility (mg/mL) in deionized water [1] [mg/mL] | Half-lives at 37° C., Porcine liver esterase (13 U/mL) (porcine liver esterase; 13 U/mL) [h] | Cleaved quantitatively to the parent drug in porcine liver esterase solution (porcine liver esterase) | Effect on [35S]TBPS binding (GABAA receptor; [6]) | Concentration of maximal effect on GABA-evoked chloride currents [2] [µM] | Effect on GABA-evoked chloride currents [2] | Protection of animals against pentylenetetrazole-induced convulsions ([3]; dose equimolar to 40 mg/kg propofol, i.p.) [%] | Anticonvulsant activity, No. of rats protected/tested [3, 7] | solubility at 72 h [1] [mg/mL] | half-life [4] [h] | half-life [5] [h] | Cleaved quantitatively to the parent drug in rat serum [5] | half-life (porcine liver esterase; 13 U/mL) [h] | IC50 (GABAA receptor) [µM] | half-life at 48 h ([4]; read-out: Half-lives at 37° C., pH 7.4 buffer (stability class)) [h] | Doses at which [35S]TBPS binding is reduced (GABAA receptor; [6]) | Protection of animals against pentylenetetrazole-induced convulsions [3, 7] | Loss of righting reflex, LRR, Duration (righting reflex) [s] | Loss of righting reflex, LRR, Onset (righting reflex) | IC50 (GABAA receptor; hydrochloride) [µM]
CC(C)c1cccc(C(C)C)c1OC(=O)C1CCNCC1 [Compound 6d, propofol isonipecotate] | 29.7 (≈ 103 mM) | 45 | not | increase of [^35S]TBPS binding | 100 | diminished | 60 | 6/10 |  |  |  |  |  |  |  |  |  |  |  | 
CC(C)c1cccc(C(C)C)c1OC(=O)C1CCCCN1 (racemic) [Compound 6b, propofol pipecolinate] |  |  | cleaved quantitatively |  |  |  |  |  | 13.4 (≈ 46.3 mM) | 7 | 0.0417 | cleaved quantitatively | 0.217 | 39.5 |  |  |  |  |  | 
CC(C)c1cccc(C(C)C)c1OC(=O)C1CCCNC1 (racemic) [Compound 6c] |  |  | not |  |  |  |  |  | 525 (≈ 1810 mM) |  | 6 | not | 3 | 152 | > 48 | higher than 100 μM |  |  |  | 
CC(C)c1cccc(C(C)C)c1O [Compound 1, 2,6-diisopropylphenol, reference compound] |  |  |  |  |  |  |  | 10/10 | ~0.15 (≈ 0.841 mM) |  |  |  |  | 4.17 |  |  | protected completely | 2245 ± 252 | 114.4 ± 9.5 s | 
CC(C)c1cccc(C(C)C)c1OC(=O)[C@@H]1CCCN1 [Compound 6a, 2.6-diisopropylphenyl pirrolidin-2-carboxylate hydrochloride] |  |  | cleaved quantitatively |  | 50 | enhanced |  | 10/10 | 350 | 6 | 0.283 | cleaved quantitatively | 0.283 |  |  |  | protected completely | 2403 ± 592 | 162.7 ± 4.3^c,d sec | 31.7
